The term Kd denotes the concentration at which binding is half-saturated.

In the test the target is T1, PARP-1 (Homo sapiens, UniProt P09874).
T1 construct: gene PARP1
The test can be described thus: saturation radioligand binding in OVCAR8 wt cells (nonspecific binding with […] veliparib). The format is cell-based.

T1 sequence (P09874 2-1014): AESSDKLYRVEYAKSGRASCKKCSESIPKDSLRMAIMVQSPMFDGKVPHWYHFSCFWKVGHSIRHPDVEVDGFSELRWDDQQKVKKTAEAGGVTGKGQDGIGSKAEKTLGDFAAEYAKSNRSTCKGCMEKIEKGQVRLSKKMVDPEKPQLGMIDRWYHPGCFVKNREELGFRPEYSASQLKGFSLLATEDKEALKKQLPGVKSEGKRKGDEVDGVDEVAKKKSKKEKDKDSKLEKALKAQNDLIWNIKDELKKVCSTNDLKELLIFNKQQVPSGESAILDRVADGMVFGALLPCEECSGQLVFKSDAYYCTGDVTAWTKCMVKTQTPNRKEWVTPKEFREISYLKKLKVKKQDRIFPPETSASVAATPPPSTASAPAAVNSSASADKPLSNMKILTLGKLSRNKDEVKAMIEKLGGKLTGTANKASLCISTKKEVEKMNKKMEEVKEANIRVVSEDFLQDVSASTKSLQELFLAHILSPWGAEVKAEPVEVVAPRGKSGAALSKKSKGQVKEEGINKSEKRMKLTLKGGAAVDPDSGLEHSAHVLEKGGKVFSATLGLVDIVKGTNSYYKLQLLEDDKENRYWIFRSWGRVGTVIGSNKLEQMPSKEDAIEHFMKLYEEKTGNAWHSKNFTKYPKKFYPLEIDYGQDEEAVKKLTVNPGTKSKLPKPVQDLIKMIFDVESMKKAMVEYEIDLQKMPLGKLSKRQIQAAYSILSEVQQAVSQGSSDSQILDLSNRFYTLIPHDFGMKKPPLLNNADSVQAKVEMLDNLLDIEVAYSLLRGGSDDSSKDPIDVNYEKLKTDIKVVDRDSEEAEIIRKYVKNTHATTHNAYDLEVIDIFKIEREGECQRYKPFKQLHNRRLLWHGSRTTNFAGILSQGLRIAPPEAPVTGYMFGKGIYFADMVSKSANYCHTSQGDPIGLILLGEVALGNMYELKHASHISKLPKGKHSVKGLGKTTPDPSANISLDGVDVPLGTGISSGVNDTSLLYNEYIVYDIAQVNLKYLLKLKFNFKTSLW

The substance [125I]KX1 gave a Kd of 7.7 nM.

The values are drawn from article PMC7766161, “PARP Theranostic Auger Emitters Are Cytotoxic in BRCA Mutant Ovarian Cancer and Viable Tumors from Ovarian Cancer Patients Enable Ex-Vivo Screening of Tumor Response” (Molecules, 2020).
